Assay results: US5972927A, “Diazepinoindoles as phosphodiesterase 4 inhibitors” (Jouveinal, priority 1996, dated 1999)
Counter-ions that a name gives are not always drawn.

test system: not given; assay: not given; settings: prior art; cited from earlier work

Row | SMILES | therapeutic index | undesirable effects
1 | Cn1c(=O)c2[nH]cnc2n(C)c1=O [theophylline] | low therapeutic index | undesirable effects such as nausea and headaches
2 | COc1ccc(C2CNC(=O)C2)cc1OC1CCCC1 (stereo not shown) [rolipram] | – | undesirable effects of the type involving nausea and vomiting

target: PDE 4; assay: Inhibition of PDE 4 compared with rolipram, enzyme preparation obtained from the line U937; format: biochemical, human; settings: ratio to rolipram on the same enzymatic preparation; PDE 4 from U937 line; inhibitor 0.1 to 100 μM
Method: The capacity of the compounds of formula (I) of the invention to inhibit cyclic nucleotide phosphodiesterases is evaluated by measuring their IC50 (concentration necessary to inhibit the enzymatic activity by 50%). In the case of PDEs 4, this value is compared to the IC50 of rolipram, a PDE 4-specific inhibitor, relative to the IC50 of rolipram on the IC50 of the product to be tested with respect to the same enzymatic preparation.
The various types of phosphodiesterase are obtained partially purified on a DEAE-cellulose column from guinea pig trachea and dog aorta according to a method adapted from W. J. Thompson et al., 1979, Advances in Cyclic Nucleotide Research, Vol. 10: 69-92, ed. G. Brooker et al. Raven Press, New York, and from P. J. Silver et al., 1988, Eur. J. Pharmacol. 150: 85-94, and from the U937 cell line of human origin, according to a method adapted from T. J. Torphy et al., 1992, J. Pharm. Exp. Ther. 263: 1195-1205.
Measurement of the enzymatic activity for the various types of PDE, and in particular for the PDEs 4, is then made according to a method also adapted from W. J. Thompson, Ibidem.
In order to determine the IC50, the enzymatic activity is measured in the presence of the inhibitor over a range of concentrations from 0.1 to 100 μM.
The following table illustrates the inhibitory activity of PDE 4 when compared with that of rolipram on an enzyme preparation obtained from the line U937.

Row | SMILES | IC50 rolipram / IC50 example
3 | Nc1cc2c3c(c1)C(c1ccccc1)=N[C@@H](NC(=O)c1cc4ccccc4o1)C(=O)N3CC2 [Example 30, (3R)N-(9-amino-4-oxo-1-phenyl-3,4, 67-tetrahydro[1,4]diazepino[6,7,1-hi]indol-3-yl)-2-benzofuranecarboxamide] | 15.0
4 | Cc1cc2nnc(C(=O)N[C@@H]3N=C(c4ccccc4)c4cc(N5CCCC5)cc5c4N(CC5)C3=O)c(C)n2n1 [Example 32, (3R) 4,7-dimethyl-pyrazolo[5,1-c][1,2,4]triazine-3-carboxylic acid [4-oxo-1-pheny-9-(pyrrolidin-1-yl)-3,4,6,7-tetrahydro[1,4]diazepino[6,7,1-hi]indol-3-yl)-amide] | 4.0
5 | COc1cc(N)c(Cl)cc1C(=O)N[C@@H]1N=C(c2ccccc2)c2cc(N)cc3c2N(CC3)C1=O [Example 8, (3R)-4-Amino-N-(9-amino-4-oxo-1-phenyl-3,4,6,7-tetrahydro[1,4]diazepino[6,7,1-hi]indol-3-yl)-5-chloro-2-methoxybenzamide] | 3.4
6 | Nc1cc2c3c(c1)C(c1ccccc1)=N[C@@H](NC(=O)c1ccncc1)C(=O)N3CC2 [12A (salt)] | 5.7
7 | CN(C)c1cc2c3c(c1)C(c1ccccc1)=N[C@@H](NC(=O)c1cc(Cl)c(N)c(Cl)c1)C(=O)N3CC2 [Example 21, (3R)-4-Amino-3,5-dichloro-N-(9-dimethylamino-4-oxo-1-phenyl-3,4,6,7-tetrahydro[1,4]-diazepino[6,7,1-hi]indol-3-yl)benzamide] | 3.3
8 | Cc1cc2nnc(C(=O)N[C@@H]3N=C(c4ccccc4)c4cc(N)cc5c4N(CC5)C3=O)c(C)n2n1 [Example 20, (3R)-4,7-Dimethylpyrazolo[5,1-c][1,2,4]triazine-3-carboxylic acid (9-amino-4-oxo-1-phenyl-3,4,6,7-tetrahydro[1,4]-diazepino[6,7,1-hi]indol-3-yl)amide] | 1.1
9 | CC(C)(C)OC(=O)Nc1cnccc1C(=O)N[C@@H]1N=C(c2ccccc2)c2cc(N)cc3c2N(CC3)C1=O [Example 13, (3R)-3-t-Butyloxycarbonylamino-N-(9-amino-4-oxo-1-phenyl-3,4,6,7-tetrahydro[1,4]diazepino[6,7,1-hi]indol-3-yl)isonicotinamide] | 1.6
10 | Nc1cc2c3c(c1)C(c1ccccc1)=N[C@@H](NC(=O)c1cc4ccccc4cn1)C(=O)N3CC2 [Example 18, (3R)-Isoquinoline-3-carboxylic acid (9-amino-4-oxo-1-phenyl-3,4,6,7-tetrahydro[1,4]-diazepino[6,7,1-hi]indol-3-yl)amide] | 11.0
11 | Nc1cc2c3c(c1)C(c1ccccc1)=N[C@@H](NC(=O)c1ccncc1)C(=O)N3CC2 [Example 12, (3R)-N-(9-Amino-4-oxo-1-phenyl-3,4,6,7-tetra-hydro[1,4]diazepinor [6,7,1-hi]indol-3-yl)-isonicotinamide] | 2.0
12 | O=C(N[C@@H]1N=C(c2ccccc2)c2cc(O)cc3c2N(CC3)C1=O)c1cc2ccccc2cn1 [Example 1, (3R)-Isoguinoline-3-carboxylic acid (9-hydroxy-4-oxo-1-phenyl-3,4,6,7-tetrahydro-[1,4]diazepino[6,7,1-hi]indol-3-yl)amide] | 1.9
13 | Nc1cc2c3c(c1)C(c1ccccc1)=N[C@@H](NC(=O)c1cnc4ccccc4c1)C(=O)N3CC2 [Example 19, (3R)-Quinoline-3-carboxylic acid (9-amino-4-oxo-1-phenyl-3,4,6,7-tetrahydro[1,4]-diazepino[6,7,1-hi]indol-3-yl)amide] | 1.4
14 | Nc1cc2c3c(c1)C(c1ccccc1)=N[C@@H](NC(=O)c1cc(Cl)c(N)c(Cl)c1)C(=O)N3CC2 [Example 4, (3R)-4-Amino-N-(9-amino-4-oxo-1-phenyl-3,4,6,7-tetrahydro[1,4]diazepino [6,7,1-hi]indol-3-yl)-3,5-dichlorobenzamide] | 33.0

test system: inflammatory cells in rodents; assay: not given; settings: in vitro; prior art; cited from earlier work

Row | SMILES | activity of inflammatory cells in rodents
15 | COc1ccc(C2CNC(=O)C2)cc1OC1CCCC1 (stereo not shown) [rolipram] | inhibits the activity of inflammatory cells in rodents: inhibition of the synthesis of mediators by mastocytes, eosinophil and basophil polymorphonuclear leukocytes and monocytes; inhibition of chemotaxis and of the degranulation of polymorphonuclear leukocytes
